The numbers were not newly measured in US20070260203A1, “Vasoactive agent intraocular implant” (ALLERGAN, INC., priority 2006, published 2007), which cites them from elsewhere.

Where two headings read alike, the source gives them in different places.

For one data set, the target named is T1, endothelin-A receptor (Homo sapiens, UniProt P25101).
T1 sequence (P25101 21-427): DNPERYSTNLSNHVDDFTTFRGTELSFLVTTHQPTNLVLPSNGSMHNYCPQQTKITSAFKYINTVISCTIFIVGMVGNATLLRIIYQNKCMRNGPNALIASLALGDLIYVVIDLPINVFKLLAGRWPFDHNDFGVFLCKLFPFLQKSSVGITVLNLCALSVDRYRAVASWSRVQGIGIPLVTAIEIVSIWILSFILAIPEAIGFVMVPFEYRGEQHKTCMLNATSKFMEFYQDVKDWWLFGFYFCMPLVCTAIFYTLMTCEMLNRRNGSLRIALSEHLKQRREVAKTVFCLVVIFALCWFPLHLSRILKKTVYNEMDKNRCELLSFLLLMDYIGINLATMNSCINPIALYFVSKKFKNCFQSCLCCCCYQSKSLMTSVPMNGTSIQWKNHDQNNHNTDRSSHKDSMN
As to conditions: competitive antagonist of both ETA and ETB.

With `COc1ccccc1Oc1c(NS(=O)(=O)c2ccc(C(C)(C)C)cc2)nc(-c2ncccn2)nc1OCCO` [Bosentan], the effective concentration (endothelin receptor antagonist, Giersbergen et al. 2005) was 0.3 to 3 µg/mL. Moreover, at endothelin-A receptor, the “affinity for the ETA receptor relative to ETB receptor” value is given as “slightly higher affinity”.
On to `CC[C@@H]1C(=O)OC[C@@H]1Cc1cncn1C` [pilocarpine], for which the effective concentration (Yoshitomi et al. 2000, rabbit ciliary artery) was 1 to 10 µM.
